# Data: PMC5538626, “Structural and functional analysis of the GABARAP interaction motif (GIM)” (EMBO Reports, 2017)
# Ends that are not written are not given here.
# Key:
# LC3B = molecular target: T1, LC3B (Homo sapiens, UniProt Q9GZQ8); experiment: ITC titration of PLEKHM1-LIR peptides into LC3B; format: binding; details: ITC, 25°C, pH 7.0; for ΔH: VP-ITC, one-site model, 0.4 mM peptide into 0.020 mM protein, 50 mM Na2HPO4, 100 mM NaCl
# T1 construct: modified Ub-leader (ubiquitin fusion leader) (N); made in house; host or cells: E. coli NEB T7 Express
# Experimental: (§1) The genes for the truncated LC3A^2–121, LC3C^8–125, GABARAP^2–117 and GABARAP‐L1^2–117 proteins were cloned into pET30ΔSE vector between the BamHI and XhoI sites using previously established protocols 38. The chimeric constructs of the PLEKHM1‐LIR attached to the LC3A, GABARAP and GABARAP‐L1 proteins were prepared by inserting the oligonucleotide sequence corresponding to the PLEKHM1‐LIR peptide (P^629[…]^638) and glycine–serine linker into the BamHI site of the pET30ΔSE vector, placing the PLEKHM1‐LIR at the N‐terminal of the mature chimeric protein (similar to 31, 38). For the expression of human LC3 and GABARAP proteins for ITC and NMR experiments, plasmids with appropriate modified Ub‐leaders in pET vectors were used 39. Gene, encoding PLEKHM1‐LIR peptide, was ordered as synthetic oligonucleotides (Eurofins Genomics GmbH) and cloned into the pET39_Ub63_ vector 39 by NcoI–BamHI restriction sites. After TEV cleavage, the resulting peptide has the amino acid sequence GAMG‐P^629[…]^642, where the first four residues (GAMG) are the cloning artefact.
# (§2) The chimeric constructs were expressed as a His‐tag fusion protein in E. coli BL21(DE3) cells. The cells were induced with 0.3 mM IPTG at OD600 0.6 for 16 h at 26°C. The cell pellets were lysed using mechanical sonication in lysis buffer (20 mM Tris–HCl pH 9.0, 100 mM NaCl, 10 mM imidazole, supplemented with 0.1% Triton X‐100). The proteins were purified using Ni‐NTA beads (GE Healthcare) and the His‐tag was cleaved using thrombin (Invitrogen) at room temperature for 16 h. The last step was gel filtration chromatography using a Superdex S200/300 GL column (GE Healthcare). The proteins were concentrated using spin concentrators (Vivaspin). For ITC and NMR studies, the non‐labelled and stable isotopes labelled LC3 and GABARAP proteins were obtained based on the protocols described elsewhere 30, 39. Here, E. coli NEB T7 Express culture transformed with corresponding plasmids were grown till OD600 nm = 1.0 and protein expression was induced with 0.2 mM IPTG. The cultures were incubated at 25°C for 8–12 h before cell harvesting. Isolation and purification procedures were similar to those reported in Ref. 22, 40. Before experiments, all proteins and peptides were equilibrated with a buffer containing 50 mM Na2HPO4, 100 mM NaCl at pH 7.0, and supplied with 5 mM protease inhibitor cocktail.
# (§3) The protocol for preparation of non‐labelled and ^13C,^15N‐labelled PLEKHM1‐LIR peptide was slightly modified to achieve highest yield of the peptide. The 50 ml M9 culture was inoculated with NEB T7 cell transformed with pET39_Ub63‐PLEKHM1‐LIR plasmid and grown overnight at 37°. The collected cells were resuspended in 2 l of either LB or M9 media contained 1.5 g ^15N‐labelled NH4Cl and 3.0 g of ^13C‐labelled glucose. The cultures were grown at 37° till A(600 nm) = 0.9 and supplied with 1 mM of IPTG to induce Ub63‐PLEKHM1‐LIR overexpression (3 h at 37°). After that cells were harvested by centrifugation, re‐suspended in buffer contained 50 mM Tris–HCl pH = 7.9, 200 mM NaCl, 5% glycerol, 0.1 mg/ml DNase A and 4 mM protease inhibitor cocktail. After cell lysis by French press, debris was removed by centrifugation and clear supernatant was applied onto the column contained Ni‐NTA Sepharose equilibrated with the loading buffer (50 mM Tris–HCl pH = 7.9, 250 mM NaCl, 1% glycerol and 20 mM imidazole). Elution was performed with 400 mM imidazole in the same buffer. An aliquot of pure Ub63‐PLEKHM1‐LIR fractions was further purified by gel filtration on Superdex75 26 × 60 column for control ITC and analytical size exclusion chromatography experiments, remaining fusion protein was processed with the TEV‐protease and PLEKHM1‐LIR peptide was purified to 95% purity by reverse Ni‐NTA chromatography and followed gel filtration on Superdex75 26 × 60 column. Peak maximum of peptide was detected at […] (void volume 115 ml). Pure peptide was concentrated in Amicon concentrators with cut‐off of 3 kDa (> 95% retention). […]
# LC3A = molecular target: T2, LC3A (Homo sapiens, UniProt Q9H492); experiment: ITC titration of PLEKHM1-LIR peptide into LC3A; format: binding; details: 25°C, pH 7.0
# T2 construct: modified Ub-leader (ubiquitin fusion leader) (N); made in house; host or cells: E. coli NEB T7 Express
# Experimental: as §1, §2, §3
# GABARAP-L2 = molecular target: T3, GABARAP-L2 (Homo sapiens, UniProt P60520); experiment: ITC titration of PLEKHM1-LIR peptide into GABARAP-L2; format: binding; details: 25°C, pH 7.0
# T3 construct: modified Ub-leader (ubiquitin fusion leader) (N); made in house; host or cells: E. coli NEB T7 Express
# Experimental: as §1, §2, §3
# GABARAP-L1 = molecular target: T4, GABARAP-L1 (Homo sapiens, UniProt Q9H0R8); experiment: ITC titration of PLEKHM1-LIR peptide into GABARAP-L1; format: binding; details: 25°C, pH 7.0
# T4 construct: modified Ub-leader (ubiquitin fusion leader) (N); made in house; host or cells: E. coli NEB T7 Express
# Experimental: as §1, §2, §3
# GABARAP proteins = experiment: ITC, GABARAP proteins (range); format: binding, human
# Experimental: All titration experiments were performed at 25°C using a VP‐ITC microcalorimeter (Malvern Instruments Ltd, UK). The ITC data were analysed with the ITC‐Origin 7.0 software with a “one‐site” binding model. The peptides at concentrations of 0.4 mM were titrated into 0.020 mM LC3 and GABARAP proteins in 26 steps. The protein and peptide concentrations were calculated from the UV absorption at 280 nm by NanoDrop spectrophotometer (Thermo Fisher Scientific, DE, USA).
# [1] = VP-ITC, one-site model, 0.4 mM peptide into 0.020 mM protein, 50 mM Na2HPO4, 100 mM NaCl
# T3 sequence (P60520 whole entry, the tested form may be a part): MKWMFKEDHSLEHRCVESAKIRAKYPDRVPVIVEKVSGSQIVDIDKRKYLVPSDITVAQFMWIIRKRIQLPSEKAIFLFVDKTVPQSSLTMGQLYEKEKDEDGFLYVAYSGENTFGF
# T4 sequence (Q9H0R8 whole entry, the tested form may be a part): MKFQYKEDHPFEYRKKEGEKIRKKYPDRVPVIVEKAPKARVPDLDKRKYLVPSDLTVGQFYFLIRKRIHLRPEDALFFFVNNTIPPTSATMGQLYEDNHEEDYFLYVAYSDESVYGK
sequence,measurement,setting,value
GAMGPQQEDEWVNVQYPD [PLEKHM1‐LIR WT],ΔH,LC3B,-5.8 ± 0.2 kcal/mol
same,ΔH,LC3B; listed as PLEKHM1-LIR,-5.8 ± 0.2 kcal/mol
same,KA,LC3B,0.16 ± 0.01 ×10^6 M^−1
same,N (number of binding sites),LC3B,1.06 ± 0.01
same,ΔG,LC3B,-7.09 kcal/mol
same,ΔS,LC3B,+4.27 cal mol^−1 K^−1
same,−T × ΔS,LC3B,-1.27 kcal/mol
same,KA,LC3B; listed as PLEKHM1-LIR,0.16±0.01 ×10^6 M^−1
same,ΔG,LC3B; listed as PLEKHM1-LIR,-7.09 kcal/mol
same,−T × ΔS,LC3B; listed as PLEKHM1-LIR,-1.27 kcal/mol
same,ΔH,LC3A; [1],-7 ± 0.2 kcal/mol
same,KA,LC3A,0.24 ± 0.02 ×10^6 M^−1
same,N (number of binding sites),LC3A,0.98 ± 0.02
same,ΔG,LC3A,-7.33 kcal/mol
same,ΔS,LC3A,+1.17 cal mol^−1 K^−1
same,−T × ΔS,LC3A,-0.35 kcal/mol
same,ΔH,GABARAP-L2; [1],-6.1 ± 0.1 kcal/mol
same,KA,GABARAP-L2,1.07 ± 0.03 ×10^6 M^−1
same,N (number of binding sites),GABARAP-L2,1.05 ± 0.01
same,ΔG,GABARAP-L2,-8.23 kcal/mol
same,ΔS,GABARAP-L2,+7.00 cal mol^−1 K^−1
same,−T × ΔS,GABARAP-L2,-2.09 kcal/mol
same,ΔH,GABARAP-L1; [1],-7.8 ± 0.1 kcal/mol
same,KA,GABARAP-L1,1.3 ± 0.1 ×10^6 M^−1
same,N (number of binding sites),GABARAP-L1,1.00 ± 0.01
same,ΔG,GABARAP-L1,-8.35 kcal/mol
same,ΔS,GABARAP-L1,+1.94 cal mol^−1 K^−1
same,−T × ΔS,GABARAP-L1,-0.58 kcal/mol
same,Kd,GABARAP proteins,550 to 770 nM
